Test results published in the NIST ThermoML archive (doi:10.1021/je049848j).
± gives the expanded uncertainty stated by the source.

Key:
[1] = refractive index (Na D-line) (dimensionless); conditions: 293 K; 101.33 kPa; Liquid; Standard Abbe refractometry
[2] = Liquid; for mass density: 293 K, 101.33 kPa, Vibrating tube method; for Normal boiling temperature: Fischer boiling apparatus

SMILES | refractive index [1] | mass density [2] [kg/m3] | Normal boiling temperature [2] [°C]
CC(=O)O [acetic acid] | 1.372 ± 0.0011 | 1049.5 ± 0.5 | 117.70 ± 0.2
Cc1ccccc1 [toluene] | 1.496 ± 0.0011 | 867.3 ± 0.5 | 110.30 ± 0.2

Results, then the compound that gave them:

refractive index [1] | mass density [2] [kg/m3] | Normal boiling temperature [2] [°C] | SMILES
1.3811 ± 0.0011 | 992.5 ± 0.5 | 140.90 ± 0.2 | CCC(=O)O [propanoic acid]
1.4104 ± 0.0011 | 814 ± 0.5 | 138.00 ± 0.2 | CCCCCO [pentan-1-ol]
1.4398 ± 0.0011 | 969.2 ± 0.9 | 172.60 ± 0.2 | CC(=O)OC1CCCCC1 [cyclohexyl ethanoate]
